Reference: ChEMBL document CHEMBL1201862, “PubChem BioAssay data set” (2004)
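48-hour exposure; five concentrations; linearly interpolated endpoints. GI50 = concentration required for 50% inhibition of growth.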 Activity calls are given as the source filed them. Rule as the data show it: active = GI50 up to about 1.1 µM and inactive = higher.

Experiments:
Test in all cases: NCI anticancer screen, dose series, 48 h
COLO 205 = test system: COLO 205
DMS-114 = test system: DMS-114
DMS-273 = test system: DMS-273
HOP-62 = test system: HOP-62
KM-20L2 = test system: KM-20L2
M19-MEL = test system: M19-MEL
MCF7 = test system: MCF7
OVCAR-3 = test system: OVCAR-3
OVCAR-8 = test system: OVCAR-8
SF-295 = test system: SF-295
SK-MEL-28 = test system: SK-MEL-28
SK-MEL-2 = test system: SK-MEL-2
SK-MEL-5 = test system: SK-MEL-5
SNB-78 = test system: SNB-78
Malme-3M = test system: Malme-3M
ACHN = test system: ACHN

Measured: GI50

CNC(=O)C(C)C1CCC2(C)C=CC(=O)C(C)=C2C1O (stereo unspecified)
inactive: COLO 205 > 47.2 µM | DMS-114 > 100 µM | DMS-273 > 37.9 µM | HOP-62 > 100 µM | KM-20L2 > 100 µM | M19-MEL > 100 µM | MCF7 > 100 µM | OVCAR-3 > 100 µM | OVCAR-8 > 49.4 µM | SF-295 > 44.8 µM | SK-MEL-28 > 100 µM | SK-MEL-2 > 100 µM | SK-MEL-5 > 39.6 µM | SNB-78 > 100 µM

O=C(CC1=NCCN1)c1ccccc1
inactive: COLO 205 > 750 µM | DMS-114 > 750 µM | DMS-273 > 750 µM | HOP-62 > 605 µM | KM-20L2 > 750 µM | M19-MEL > 750 µM | MCF7 > 750 µM | Malme-3M > 617 µM | OVCAR-3 > 750 µM | OVCAR-8 > 750 µM | SF-295 > 750 µM | SK-MEL-28 > 750 µM | SK-MEL-2 > 750 µM | SK-MEL-5 > 750 µM | SNB-78 > 750 µM

CC(=O)Oc1ccc(Nn2c3ccccc3c3ccccc32)c(C)c1
inactive: COLO 205 31.7 µM | DMS-114 27.1 µM | DMS-273 19.6 µM | HOP-62 36.1 µM | KM-20L2 29.4 µM | M19-MEL 31.9 µM | Malme-3M 28.6 µM | OVCAR-3 42.6 µM | OVCAR-8 24.3 µM | SF-295 25.8 µM | SK-MEL-28 67.6 µM | SK-MEL-2 37 µM | SK-MEL-5 39.2 µM | SNB-78 39.4 µM

NC(CCCCNCc1ccccc1)C(=O)O (stereo unspecified)
inactive: ACHN > 100 µM | COLO 205 > 100 µM | DMS-114 > 100 µM | DMS-273 > 100 µM | HOP-62 > 100 µM | KM-20L2 > 100 µM | M19-MEL > 100 µM | Malme-3M > 100 µM | OVCAR-3 > 100 µM | OVCAR-8 > 100 µM | SF-295 > 100 µM | SK-MEL-28 > 100 µM | SK-MEL-2 > 100 µM | SK-MEL-5 > 100 µM | SNB-78 > 100 µM

CCCCCCCCCCCC(=O)C1=C(O)CCC(O)C1=O (stereo unspecified)
inactive: ACHN 19.4 µM | COLO 205 15.1 µM | DMS-114 14.2 µM | DMS-273 7.29 µM | HOP-62 15.2 µM | KM-20L2 11.7 µM | M19-MEL 19.5 µM | Malme-3M 17 µM | OVCAR-3 10.8 µM | OVCAR-8 10.1 µM | SF-295 8.17 µM | SK-MEL-28 16.1 µM | SK-MEL-2 11.9 µM | SK-MEL-5 10 µM | SNB-78 21.9 µM

CC(C)CC(N/C=C1/N=C(c2ccccc2)OC1=O)C(=O)O (stereo unspecified)
inactive: ACHN > 100 µM | COLO 205 > 100 µM | DMS-114 > 100 µM | DMS-273 > 100 µM | HOP-62 > 100 µM | KM-20L2 > 100 µM | M19-MEL > 100 µM | Malme-3M > 100 µM | OVCAR-3 > 100 µM | OVCAR-8 > 100 µM | SF-295 > 100 µM | SK-MEL-28 > 100 µM | SK-MEL-2 > 100 µM | SK-MEL-5 > 100 µM | SNB-78 > 100 µM

c1ccc2c(c1)nc1n2CSC1
inactive: ACHN > 100 µM | COLO 205 > 100 µM | DMS-114 > 100 µM | DMS-273 > 100 µM | KM-20L2 > 100 µM | M19-MEL > 100 µM | Malme-3M > 100 µM | OVCAR-3 > 100 µM | OVCAR-8 > 100 µM | SF-295 > 100 µM | SK-MEL-28 > 100 µM | SK-MEL-2 > 100 µM | SK-MEL-5 > 100 µM | SNB-78 > 100 µM

COc1ccc(/C=C(\C2=NC(=O)CS2)c2nc3ccccc3[nH]2)cc1
inactive: ACHN 37.6 µM | COLO 205 > 100 µM | DMS-114 19.5 µM | DMS-273 > 100 µM | HOP-62 32.1 µM | KM-20L2 49 µM | M19-MEL 43.5 µM | Malme-3M 69.3 µM | OVCAR-3 22 µM | OVCAR-8 46.8 µM | SF-295 37.2 µM | SK-MEL-28 87.9 µM | SK-MEL-2 24 µM | SK-MEL-5 37.6 µM | SNB-78 21.5 µM

COc1cc(/C=C/C(=O)O)ccc1C(=O)OCc1ccccc1
inactive: COLO 205 > 100 µM | DMS-114 > 100 µM | DMS-273 > 100 µM | HOP-62 > 100 µM | KM-20L2 > 100 µM | M19-MEL > 100 µM | MCF7 > 100 µM | Malme-3M > 100 µM | OVCAR-3 > 100 µM | OVCAR-8 > 100 µM | SF-295 > 100 µM | SK-MEL-28 > 100 µM | SK-MEL-2 > 100 µM | SK-MEL-5 > 100 µM | SNB-78 > 100 µM

COc1ccc2c(c1)[n+]([O-])c(-c1cccc(Cl)c1)c(N)[n+]2[O-]
inactive: ACHN 57.3 µM | COLO 205 16.6 µM | DMS-114 23.1 µM | DMS-273 33.6 µM | HOP-62 > 100 µM | KM-20L2 37.8 µM | M19-MEL 30.3 µM | Malme-3M 37.2 µM | OVCAR-3 36.2 µM | OVCAR-8 40.3 µM | SF-295 97.1 µM | SK-MEL-28 23.6 µM | SK-MEL-2 18.7 µM | SK-MEL-5 19.2 µM | SNB-78 79.8 µM

COc1cc(C2C(C(=O)Nc3ccccc3C)=C(C)NC(C)=C2C(=O)Nc2ccccc2C)ccc1O
inactive: ACHN > 100 µM | COLO 205 > 100 µM | DMS-114 > 100 µM | DMS-273 > 100 µM | HOP-62 > 100 µM | KM-20L2 > 100 µM | M19-MEL > 100 µM | Malme-3M > 100 µM | OVCAR-3 > 100 µM | OVCAR-8 > 100 µM | SF-295 > 100 µM | SK-MEL-28 > 100 µM | SK-MEL-2 > 100 µM | SK-MEL-5 > 100 µM | SNB-78 > 100 µM

COC(=O)C#CCC1CCCC1C1SCCS1 (stereo unspecified)
inactive: ACHN 34 µM | COLO 205 > 100 µM | DMS-114 > 100 µM | DMS-273 30.4 µM | HOP-62 > 100 µM | KM-20L2 59.6 µM | M19-MEL > 100 µM | Malme-3M > 100 µM | OVCAR-3 88.3 µM | OVCAR-8 61.1 µM | SF-295 90.6 µM | SK-MEL-28 > 100 µM | SK-MEL-2 26.2 µM | SK-MEL-5 > 100 µM | SNB-78 23.6 µM

CS(=O)(=O)N/N=C/CN1C(=O)c2ccccc2C1=O
inactive: ACHN > 100 µM | COLO 205 > 100 µM | DMS-114 > 100 µM | DMS-273 > 100 µM | HOP-62 > 100 µM | KM-20L2 > 100 µM | M19-MEL > 100 µM | Malme-3M > 100 µM | OVCAR-3 > 100 µM | OVCAR-8 > 100 µM | SF-295 > 100 µM | SK-MEL-28 > 100 µM | SK-MEL-2 > 100 µM | SK-MEL-5 > 100 µM | SNB-78 > 100 µM

CN1c2ccccc2N(C(=O)c2ccc([N+](=O)[O-])cc2)C(CC(=O)O)c2cccn21 (stereo unspecified)
inactive: ACHN > 100 µM | COLO 205 > 100 µM | DMS-114 > 100 µM | DMS-273 > 100 µM | HOP-62 > 100 µM | KM-20L2 > 100 µM | M19-MEL > 100 µM | Malme-3M > 100 µM | OVCAR-3 > 100 µM | OVCAR-8 > 100 µM | SF-295 > 100 µM | SK-MEL-28 > 100 µM | SK-MEL-2 > 100 µM | SK-MEL-5 > 100 µM | SNB-78 > 100 µM

COC1O[C@H]2CCN(C(=O)OCc3ccccc3)[C@H]2[C@H]1OCc1ccccc1 (stereo partly specified)
inactive: ACHN 39.6 µM | COLO 205 70.3 µM | DMS-114 29.6 µM | DMS-273 39.1 µM | HOP-62 > 100 µM | KM-20L2 69.2 µM | M19-MEL 53 µM | Malme-3M 45.6 µM | OVCAR-3 42.6 µM | OVCAR-8 69.7 µM | SF-295 49.9 µM | SK-MEL-28 41.2 µM | SK-MEL-2 29.8 µM | SK-MEL-5 24.1 µM | SNB-78 54.8 µM

COC(=O)C1=C(O)c2cc3c(cc2[C@H](c2cc(OC)c(OC)c(OC)c2)C1C(=O)OC)OCO3 (stereo partly specified)
inactive: ACHN 22.1 µM | COLO 205 19.7 µM | DMS-114 25 µM | DMS-273 65.2 µM | HOP-62 > 100 µM | KM-20L2 > 100 µM | M19-MEL 39.5 µM | Malme-3M 28.9 µM | OVCAR-3 30.4 µM | OVCAR-8 39.5 µM | SF-295 57 µM | SK-MEL-28 52.8 µM | SK-MEL-5 32.8 µM | SNB-78 53.2 µM

COc1cc2c(cc1OC)-c1c3c(cc4c1[C@@H](C2)N(C)CC4)OCO3
inactive: COLO 205 4.23 µM | DMS-114 8.43 µM | DMS-273 3.52 µM | HOP-62 3.57 µM | KM-20L2 3.44 µM | M19-MEL 10.4 µM | MCF7 1.94 µM | Malme-3M 9.14 µM | OVCAR-3 13.6 µM | OVCAR-8 4.59 µM | SF-295 1.64 µM | SK-MEL-28 12.2 µM | SK-MEL-2 10.9 µM | SK-MEL-5 7.52 µM | SNB-78 11.6 µM
